Measured values published in the supplement of paper PMC10307832.

compound: Cc1nc(NC(=O)N2CCC[C@H]2C(N)=O)sc1-c1ccnc(C(C)(C)C(F)(F)F)c1 [Alpelisib] + NC(=O)Nc1cc(-c2cccc(F)c2)sc1C(=O)N[C@H]1CCCNC1 [AZD7762] (partner 0.2 µM); test: relative viability (nuclei count vs DMSO), 5 days (fraction); higher = more cells survive; settings: first compound 0.1265 µM
Method in brief: (§1)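 Lung cancer cell lines in 1536-well plates got either a single drug or a fixed anchor-drug dose together with five library-drug doses (not always all listed) in √10 steps, by pin tool, on the day after seeding. Nuclei were counted after 5 days, and relative viability is the treated-to-vehicle ratio of nuclei counts. Values are medians of duplicate plates.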

| Cell Line | relative viability |
| --- | --- |
| NCI-H1793 | 0.332 |
| NCI-H2342 | 0.421 |
| H3255 | 0.88 |
| NCI-H1975 | 0.621 |
| PC-14 | 0.236 |
| NCI-H1437 | 1.18 |
| HOP-62 | 0.386 |
| HCC-44 | 1.02 |
| BEN | 0.59 |
| LOU-NH91 | 0.608 |
| NCI-H1651 | 0.442 |
| PC-3 [JPC-3] | 0.755 |
| LK-2 | 0.253 |
| NCI-H2405 | 0.728 |
| NCI-H1703 | 0.129 |
| NCI-H1648 | 0.591 |
| NCI-H1993 | 0.656 |
| ChaGo-K-1 | 0.909 |
| NCI-H1355 | 0.78 |
| HCC-366 | 0.316 |
| NCI-H2170 | 0.712 |
| NCI-H522 | 0.987 |
| NCI-H1944 | 0.6 |
| NCI-H1395 | 0.379 |
| NCI-H358 | 0.386 |

same assay, conditions: first compound 0.4 µM

| Cell Line | relative viability |
| --- | --- |
| NCI-H2126 | 0.945 |
| EPLC-272H | 0.24 |
| NCI-H1755 | 0.465 |
| NCI-H1793 | 0.383 |
| NCI-H2342 | 0.506 |
| H3255 | 1.32 |
| NCI-H1975 | 0.731 |
| PC-14 | 0.448 |
| NCI-H1437 | 1.12 |
| HOP-62 | 1.21 |
| HCC-44 | 1.02 |
| BEN | 0.756 |
| LOU-NH91 | 0.663 |
| NCI-H1651 | 0.535 |
| PC-3 [JPC-3] | 0.781 |
| LK-2 | 0.442 |
| NCI-H2405 | 0.686 |
| NCI-H1703 | 0.125 |
| NCI-H1648 | 0.821 |
| NCI-H1993 | 0.695 |
| ChaGo-K-1 | 0.875 |
| NCI-H1355 | 0.704 |
| HCC-366 | 0.307 |
| NCI-H2170 | 0.891 |
| NCI-H522 | 0.729 |
| NCI-H1944 | 0.605 |
| NCI-H1395 | 0.404 |
| NCI-H358 | 0.497 |
| SW 900 | 0.545 |

same assay, conditions: first compound 1.265 µM

| Cell Line | relative viability |
| --- | --- |
| NCI-H2126 | 0.904 |
| EPLC-272H | 0.271 |
| NCI-H1755 | 0.326 |
| NCI-H1793 | 0.374 |
| NCI-H2342 | 0.497 |
| H3255 | 0.799 |
| NCI-H1975 | 0.463 |
| PC-14 | 0.307 |
| NCI-H1437 | 1.02 |
| HOP-62 | 0.651 |
| HCC-44 | 1.03 |
| BEN | 0.825 |
| LOU-NH91 | 0.556 |
| NCI-H1651 | 0.536 |
| PC-3 [JPC-3] | 0.601 |
| LK-2 | 0.209 |
| NCI-H2405 | 0.446 |
| NCI-H1703 | 0.103 |
| NCI-H1648 | 0.62 |
| NCI-H1993 | 0.539 |
| ChaGo-K-1 | 0.791 |
| NCI-H1355 | 0.636 |
| HCC-366 | 0.183 |
| NCI-H2170 | 0.632 |
| NCI-H522 | 0.702 |
| NCI-H1944 | 0.3 |
| NCI-H1395 | 0.393 |
| NCI-H358 | 0.301 |
| SW 900 | 0.546 |

same assay, conditions: first compound 4 µM

| Cell Line | relative viability |
| --- | --- |
| NCI-H2126 | 0.769 |
| EPLC-272H | 0.186 |
| NCI-H1755 | 0.362 |
| NCI-H1793 | 0.23 |
| NCI-H2342 | 0.426 |
| H3255 | 0.864 |
| NCI-H1975 | 0.374 |
| PC-14 | 0.35 |
| NCI-H1437 | 1.06 |
| HOP-62 | 0.614 |
| HCC-44 | 1.07 |
| BEN | 0.549 |
| LOU-NH91 | 0.543 |
| NCI-H1651 | 0.359 |
| PC-3 [JPC-3] | 0.516 |
| LK-2 | 0.123 |
| NCI-H2405 | 0.428 |
| NCI-H1703 | 0.116 |
| NCI-H1648 | 0.521 |
| NCI-H1993 | 0.472 |
| ChaGo-K-1 | 0.672 |
| NCI-H1355 | 0.553 |
| HCC-366 | 0.072 |
| NCI-H2170 | 0.481 |
| NCI-H522 | 0.678 |
| NCI-H1944 | 0.344 |
| NCI-H1395 | 0.392 |
| NCI-H358 | 0.295 |
| SW 900 | 0.519 |

compound: Cc1nc(NC(=O)N2CCC[C@H]2C(N)=O)sc1-c1ccnc(C(C)(C)C(F)(F)F)c1 [Alpelisib] + N=C(N)NC(=N)NCCc1ccccc1 [Phenformin] (partner 250 µM); test: as above; settings: first compound 0.04 µM
Method in brief: as §1

| Cell Line | relative viability |
| --- | --- |
| NCI-H2126 | 0.541 |
| EPLC-272H | 0.303 |
| NCI-H1755 | 0.653 |
| NCI-H2023 | 0.404 |
| NCI-H1623 | 0.548 |
| NCI-H1650 | 0.405 |
| NCI-H1793 | 0.365 |
| NCI-H2342 | 0.606 |
| H3255 | 0.352 |
| NCI-H1975 | 0.417 |
| PC-14 | 0.653 |
| NCI-H1437 | 0.326 |
| HOP-62 | 0.642 |
| HCC-44 | 0.248 |
| BEN | 0.262 |
| LOU-NH91 | 0.668 |
| NCI-H661 | 0.285 |
| NCI-H1651 | 0.369 |
| PC-3 [JPC-3] | 0.502 |
| SW 1573 | 0.306 |
| LK-2 | 0.4 |

| Cell Line | relative viability |
| --- | --- |
| NCI-H2405 | 0.371 |
| NCI-H1993 | 0.501 |
| ChaGo-K-1 | 0.495 |
| NCI-H1355 | 0.421 |
| HCC-366 | 0.639 |
| NCI-H2009 | 0.502 |
| NCI-H2170 | 0.466 |
| SK-LU-1 | 0.495 |
| NCI-H522 | 0.573 |
| COR-L23 | 0.388 |
| NCI-H1944 | 0.194 |
| NCI-H1563 | 0.637 |
| NCI-H1395 | 0.458 |
| NCI-H358 | 0.309 |
| COR-L 105 | 0.446 |
| NCI-H520 | 0.55 |
| NCI-H2228 | 0.363 |
| A549 | 0.147 |
| SW 900 | 0.561 |
| SK-MES-1 | 0.662 |

same assay, conditions: first compound 0.1265 µM

| Cell Line | relative viability |
| --- | --- |
| NCI-H2126 | 0.498 |
| EPLC-272H | 0.267 |
| NCI-H1755 | 0.601 |
| NCI-H2023 | 0.408 |
